Assay results as given in patent US20240041042A1, “1-(PYRIDYL)-5-AZINYLPYRAZOLE DERIVATIVES, AND THEIR USE FOR CONTROL OF UNDESIRED PLANT GROWTH” (Bayer Aktiengesellschaft, priority 2020, published 2024).
Where two headings read alike, the source gives them in different places.

Experiments:
Type in all cases: in vivo
[1] = tested on: Setaria viridis (SETVI); test: Post-emergence herbicidal action against SETVI
Method in brief: (§1)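 Values are percent visual activity (0% like control, 100% plants dead) after about 3 weeks in the greenhouse. Treatment: post-emergence spray at one-leaf stage, 600 l/ha spray volume, 0.5% additive, doses 320 g/ha or lower.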

[2] = tested on: Echinochloa crus-galli (ECHCG); test: Post-emergence herbicidal action against ECHCG
Method in brief: as §1

[3] = tested on: Oryza sativa (ORYSA); conditions: crop plant compatibility
Method in brief: (§2)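 One-leaf-stage crops (2–3 wk post-sowing, sandy loam, greenhouse) sprayed on green parts; 0.5% additive, 600 l/ha water. Rated by eye ~3 wk later, % vs untreated; suffixes a/b/c mark different dosages.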

[4] = tested on: Zea mays (ZEAMX); conditions: for Post-emergence action against ZEAMX in % (crop plant compatibility): 20 g/ha, effect in comparison to untreated controls; for Post-emergence action against ZEAMX in %: crop plant compatibility, 80 g/ha, effect vs untreated controls
Method in brief: as §2

[5] = tested on: Triticum aestivum (TRZAS); conditions: crop plant compatibility, effect vs untreated controls
Method in brief: as §2

[6] = tested on: Digitaria sanguinalis (DIGSA); test: Post-emergence herbicidal action against DIGSA; conditions: 320 g/ha, visual rating about 3 weeks after treatment
Method in brief: as §1

[7] = tested on: Viola tricolor (VIOTR); test: Post-emergence herbicidal action against VIOTR
Method in brief: as §1

[8] = tested on: Lolium rigidum (LOLRI); test: Pre-emergence herbicidal action against LOLRI
Method in brief: (§3)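 Pre-emergence soil-surface spray, WP/EC formulation, 0.5% additive, 600 l/ha water, rates of 320 g/ha or lower. Greenhouse, ~3 wk. Visual score, % of untreated control (100% = plants dead, 0% = like control).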

[9] = tested on: Matricaria inodora (MATIN); test: Pre-emergence herbicidal action against MATIN
Method in brief: as §3

[10] = tested on: Pharbitis purpurea (PHBPU); test: Post-emergence herbicidal action against PHBPU
Method in brief: as §1

[11] = tested on: Viola tricolor (VIOTR); test: Pre-emergence herbicidal action against VIOTR
Method in brief: as §3

[12] = tested on: Verconica persica (VERPE); test: Pre-emergence herbicidal action against VERPE
Method in brief: as §3

[13] = tested on: Amaranthus retroflexus (AMARE); test: Post-emergence herbicidal action against AMARE
Method in brief: as §1

[14] = tested on: Avena fatua (AVEFA); test: Post-emergence herbicidal action against AVEFA; conditions: 80 g/ha, visual rating about 3 weeks after treatment
Method in brief: as §1

[15] = tested on: Pharbitis purpurea (PHBPU); test: Pre-emergence herbicidal action against PHBPU
Method in brief: as §3

[16] = tested on: Amaranthus retroflexus (AMARE); test: Pre-emergence herbicidal action against AMARE; conditions: visual scoring after about 3 weeks vs untreated controls
Method in brief: as §3

[17] = tested on: Polygonum convolvulus (POLCO); test: Pre-emergence herbicidal action against POLCO
Method in brief: as §3

[18] = tested on: Alopecurus myosuroides (ALOMY); test: Post-emergence herbicidal action against ALOMY; conditions: 80 g/ha, visual rating about 3 weeks after treatment vs untreated controls (100% = plants have died, 0% = like control plants)
Method in brief: as §1

[19] = tested on: Echinochloa crus-galli (ECHCG); test: Pre-emergence herbicidal action against ECHCG
Method in brief: as §3

[20] = tested on: Alopecurus myosuroides (ALOMY); test: Pre-emergence herbicidal action against ALOMY; conditions: scored visually after about 3 weeks, 100% = plants have died
Method in brief: as §3

[21] = tested on: Setaria viridis (SETVI); test: Pre-emergence herbicidal action against SETVI
Method in brief: as §3

[22] = tested on: Verconica persica (VERPE); test: Post-emergence herbicidal action against VERPE
Method in brief: as §1

[23] = tested on: Matricaria inodora (MATIN); test: Post-emergence herbicidal action against MATIN; conditions: dosage 80 g/ha
Method in brief: as §1

[24] = tested on: Avena fatua (AVEFA); test: Pre-emergence herbicidal action against AVEFA; conditions: 320 g/ha, visual scoring after about 3 weeks vs untreated controls
Method in brief: as §3

[25] = tested on: Lolium rigidum (LOLRI); test: Post-emergence herbicidal action against LOLRI; conditions: dosage 80 g/ha
Method in brief: as §1

[26] = tested on: Polygonum convolvulus (POLCO); test: Post-emergence herbicidal action against POLCO; conditions: dosage 80 g/ha
Method in brief: as §1

[27] = tested on: Abutilon theophrasti (ABUTH); test: Post-emergence herbicidal action against ABUTH; conditions: 80 g/ha, visual rating about 3 weeks after treatment vs untreated controls (100% = plants have died, 0% = like control plants)
Method in brief: as §1

[28] = 20 g/ha, effect vs untreated controls
[29] = 80 g/ha, effect in comparison to untreated controls
[30] = 80 g/ha, visual rating about 3 weeks after treatment vs untreated controls (100% = plants have died, 0% = like control plants)

Row | Post-emergence action against ORYSA in % [3, 28] [%] | Post-emergence action against ORYSA in % [3, 29] [%] | Post-emergence action against ZEAMX in % (crop plant compatibility) [4] [%] | Post-emergence action against ZEAMX in % [4] [%] | Post-emergence action against TRZAS in % ([5]; 20 g/ha) [%] | Compound | Post-emergence action against SETVI in % ([1]; dosage 320 g/ha) [%] | Post-emergence action against ECHCG in % ([2]; dosage 320 g/ha) [%] | Post-emergence action against SETVI in % ([1]; dosage 80 g/ha) [%] | Pre-emergence action against LOLRI in % ([8]; dosage 320 g/ha) [%] | Pre-emergence action against MATIN in % ([9]; dosage 80 g/ha) [%] | Pre-emergence action against MATIN in % ([9]; dosage 320 g/ha) [%] | Post-emergence action against ECHCG in % ([2]; dosage 80 g/ha) [%] | Post-emergence action against PHBPU in % ([10]; dosage 80 g/ha) [%] | Pre-emergence action against VIOTR in % ([11]; 320 g/ha, Viola tricolor) [%] | Pre-emergence action against VERPE in % ([12]; dosage 320 g/ha) [%] | Pre-emergence action against PHBPU in % ([15]; dosage 320 g/ha) [%] | Pre-emergence action against AMARE in % ([16]; 320 g/ha) [%] | Pre-emergence action against POLCO in % ([17]; dosage 320 g/ha) [%] | Pre-emergence action against ECHCG in % ([19]; dosage 320 g/ha) [%] | Post-emergence action against VERPE in % ([22]; dosage 80 g/ha) [%] | further results
1 | 10 | 20 | 10 | 20 | 20 | COC(=O)C(C)NC(=O)C(C)Oc1nn(-c2ccccn2)c(-c2ccc(F)nc2)c1Br (stereo not drawn) [Example I-286] | 80 | 80 | – | – | – | – | – | – | – | – | – | – | – | – | – | Post-emergence action against ORYSA in % ([3]; 320 g/ha, effect in comparison to untreated controls): 20%; Post-emergence action against DIGSA in % [6]: 90%; Post-emergence action against VIOTR in % ([7]; 320 g/ha): 80%
2 | 20 | – | 20 | – | 20 | CCOC(=O)COc1nn(-c2ncccc2F)c(-c2ccc(F)nc2)c1Br [Example I-51] | – | – | 90 | 90 | 90 | 90 | 90 | 90 | 100 | 100 | 90 | 100 | 90 | 90 | 80 | Pre-emergence action against VIOTR in % ([11]; dosage 80 g/ha): 100%; Pre-emergence action against VERPE in % ([12]; dosage 80 g/ha): 100%; Post-emergence action against AMARE in % [13, 30]: 90%; Post-emergence action against AVEFA in % [14]: 90%; Pre-emergence action against AMARE in % ([16]; 80 g/ha): 100%; Pre-emergence action against POLCO in % ([17]; dosage 80 g/ha): 80%; Post-emergence action against ALOMY in % [18]: 90%; Pre-emergence action against ECHCG in % ([19]; dosage 80 g/ha): 80%; Pre-emergence action against ALOMY ([20]; 80 g/ha): 90%; Pre-emergence action against ALOMY ([20]; 320 g/ha): 100%; Pre-emergence action against SETVI in % ([21]; dosage 80 g/ha): 90%; Pre-emergence action against SETVI in % ([21]; dosage 320 g/ha): 100%; Post-emergence action against MATIN in % [23]: 80%; Pre-emergence action against AVEFA in % [24]: 90%; Post-emergence action against VIOTR in % ([7]; 80 g/ha): 80%
3 | – | 0 | – | – | – | O=C(COc1nn(-c2ncccc2C(F)(F)F)c(-c2cncc(F)c2)c1Br)OCC1CCOC1 (racemic) [Example I-162] | 80 | 80 | – | – | – | – | – | – | 100 | 90 | 90 | 90 | 100 | 80 | 80 | Post-emergence action against PHBPU in % ([10]; dosage 320 g/ha): 90%; Pre-emergence action against VIOTR in % ([11]; dosage 80 g/ha): 80%; Pre-emergence action against VERPE in % ([12]; dosage 80 g/ha): 90%; Post-emergence action against AMARE in % ([13]; 320 g/ha, visual rating about 3 weeks after treatment): 80%; Post-emergence action against TRZAS in % ([5]; 80 g/ha): 10%; Post-emergence action against VERPE in % ([22]; 320 g/ha, VERPE): 90%
4 | 0 | 0 | 10 | 20 | 20 | COC(=O)CCOC(=O)COc1nn(-c2ccccn2)c(-c2cncc(F)c2)c1Cl [Example I-75] | – | – | 80 | 100 | 90 | 90 | 90 | 90 | 100 | 90 | 90 | 90 | 90 | 100 | 80 | Post-emergence action against LOLRI in % [25]: 90%; Pre-emergence action against LOLRI in % ([8]; dosage 80 g/ha): 80%; Post-emergence action against POLCO in % [26]: 90%; Post-emergence action against AMARE in % [13, 30]: 80%; Post-emergence action against AVEFA in % [14]: 80%; Post-emergence action against ABUTH in % [27]: 80%; Pre-emergence action against PHBPU in % ([15]; dosage 80 g/ha): 90%; Pre-emergence action against AMARE in % ([16]; 80 g/ha): 80%; Post-emergence action against ALOMY in % [18]: 90%; Pre-emergence action against ECHCG in % ([19]; dosage 80 g/ha): 80%; Pre-emergence action against ALOMY ([20]; 80 g/ha): 80%; Pre-emergence action against ALOMY ([20]; 320 g/ha): 90%; Pre-emergence action against SETVI in % ([21]; dosage 320 g/ha): 100%; Post-emergence action against MATIN in % [23]: 90%; Pre-emergence action against AVEFA in % [24]: 80%
